The structures appear in SMILES notation. Like-named read-outs stand apart in the source and are kept apart here.

The series addresses T1, enzyme (from seminal vesicles of sheep) (Ovis aries, UniProt P05979).
T1 sequence (P05979 25-600): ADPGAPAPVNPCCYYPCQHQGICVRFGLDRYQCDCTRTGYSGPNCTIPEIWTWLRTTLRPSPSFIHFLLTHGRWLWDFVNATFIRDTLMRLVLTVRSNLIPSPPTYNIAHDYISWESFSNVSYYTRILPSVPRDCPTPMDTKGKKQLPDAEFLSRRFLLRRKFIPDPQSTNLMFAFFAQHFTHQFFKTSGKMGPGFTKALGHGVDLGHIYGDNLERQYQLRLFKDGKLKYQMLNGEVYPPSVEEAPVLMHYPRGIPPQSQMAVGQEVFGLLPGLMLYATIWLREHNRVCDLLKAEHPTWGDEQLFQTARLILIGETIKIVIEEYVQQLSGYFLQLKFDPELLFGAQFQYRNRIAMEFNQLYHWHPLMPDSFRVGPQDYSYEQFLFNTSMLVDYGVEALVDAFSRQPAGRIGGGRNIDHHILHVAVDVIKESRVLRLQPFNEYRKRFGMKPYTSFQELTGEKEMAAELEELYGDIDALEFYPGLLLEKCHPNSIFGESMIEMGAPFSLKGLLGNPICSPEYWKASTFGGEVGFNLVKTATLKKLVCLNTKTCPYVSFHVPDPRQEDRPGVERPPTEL
The note with it: for stimulation of prostaglandin synthesis with much smaller quantities of undesired byproducts: mixtures with polyunsaturated fatty acids such as arachidonic acid, result in words; for relative total prostaglandin f: seminal vesicle enzyme, 10 min, pH 8. On the procedure: Method 2: Prostaglandin Synthesis
0.3 ml of 0.03M potassium phosphate buffer of pH=8.0 contains 0.5 mg of enzyme (from seminal vesicles of sheep) (Biochemistry 10 (1971) 2372) or homogenate of the inner kidney medulla (Life Sciences 26 (1980) 765), 2.75 μg of ^14 C-arachidonic acid (0.5 μCi) and 0.5 mg of stimulator, and, if appropriate, 0.5 mg of stabilizer substance (see Table 1). After 10 minutes' incubation at 37° C., the reaction is stopped with 0.05 ml of 1.2M citric acid and the mixture is extracted with twice 0.5 ml of ethyl acetate, the combined extracts are freed of solvent, and the residue is dissolved in 0.2 ml of methanol, diluted 1:1 with water and separated by HPLC (nucleosil C-18 column, 125×4.6 mm, from Bischoff, Leonberg, Germany, solvent 300 ml of acetonitrile, 700 ml of water and 1 ml of glacial acetic acid and after 30 minutes pure methanol). The separation of the radioactive fractions is followed by a monitor (LB 504 from Berthold, Wildbad, Germany). The products formed, such as 6-keto-prostaglandin F2alpha, prostaglandin E2, prostaglandin F2alpha and prostaglandin D2, are separated under these conditions.
The prostaglandins PGE2, PGF2 alpha and PGD2 as products from arachidonic acid where quantified by means of method 2, and the sum was related as "total prostaglandin" to 100%. The quantity of "total prostaglandin" formed without the addition of a stimulator was set at f=1; the quantity formed after stimulation was related thereto. f=2 or f=3 therefore means twice or three times the stimulation under the conditions of method 2. The stability of the sample was investigated by means of method 1 (right-hand column). […] Values greater than 25-28% therefore represent a stabilization, and values smaller than 25-28% represent a destabilization. Example No. 1 was carried out without a stimulator. […] The substances test with respect to stabilization (see Method 1 for quantities) were: A) aqueous solution without stabilizer addition, B) ethanolic solution without further addition, C) pyridine solution, D) with rutin, predissolved in dimethyl sulfoxide, dimethyl sulfoxide then stripped off, E) like B) with lecithin, ethanol stripped off, F) like A) with cytochrome c from horse heart (from Boehringer, Mannheim, Germany), G) like A) with methemoglobin (human) (from Sigman, Munich, Germany), H) like A) with bovine serum albumin (from Calbiochem, Frankfurt, Germany), J) like A) or B), but solvent stripped off, K) like J) with cytochrome c, L) like J) with hemoglobin (human) (from Behringwerke, Marburg, Germany), and M) like J) with human serum albumin (from Behringwerke, Marburg, Germany).

[1] abbreviates: Table 1, share of total prostaglandin (=100%).
Setting [2] is: Table 2, share of total prostaglandin.

For the compound `O=C(O)CCCC[C@@H](S)CCS` (racemic) [Example 42, Dihydrolipoic acid, reference compound], the “stimulation of prostaglandin synthesis with much smaller quantities of undesired byproducts” value (from here on “stimulation of prostaglandin synthesis”) was “not possible to achieve these advantageous effects” and the “relative total prostaglandin f” value is given as 1.0.

Under setting [1], `Cc1cccc(O)c1` [Example 2, m-cresol, reference compound] registered a PGD2 % of 2%, a PGE2 % of 98% and a PGF2alpha % of 0%.

Turning to `Oc1ccccc1` [Example 3, phenol, reference compound], under setting [1], the PGD2 % turned out to be 18%, the PGE2 % is recorded as 77% and the PGF2alpha % is reported as 5%.

With `N[C@@H](Cc1ccccc1)C(=O)O` [Example 4, L-phenylalanine, reference compound], under setting [1], the PGD2 % stood at 18%, the PGE2 % is reported as 80% and the PGF2alpha % is on record as 2%.

On to `NCCc1ccc(O)cc1` [Example 7], for which the “relative total prostaglandin f” value is 4,0. Besides, under setting [1], the PGD2 % is on record as 17%, the PGE2 % worked out at 80% and the PGF2alpha % is given as 3%.

Under setting [1], `O=C(O)CCc1ccc(O)cc1` [Example 8] registered a PGD2 % of 16%, a PGE2 % of 83% and a PGF2alpha % of 1%.

With `NC(Cc1ccc(O)c(O)c1)C(=O)O` (centres unmarked) [Example 9], the “relative total prostaglandin f” value was 9.4. Under setting [1], the PGD2 % is 16%, the PGE2 % amounted to 70% and the PGF2alpha % was 14%.

Regarding `NCC(O)c1ccc(O)c(O)c1` (centres unmarked) [Example 12], the “relative total prostaglandin f” value is 8.3. Moreover, under setting [1], the PGD2 % is on record as 17%, the PGE2 % stood at 66% and the PGF2alpha % was determined as 17%.

`CNCC(O)c1ccc(O)c(O)c1` (centres unmarked) [Example 13]: under setting [1], the PGD2 % amounted to 18%, the PGE2 % came to 70% and the PGF2alpha % is 12%.

Under setting [1], `Oc1ccc(O)cc1` [Example 14] displayed a PGD2 % of 19%, a PGE2 % of 69% and a PGF2alpha % of 12%.

As for `COc1cc(C(=O)O)ccc1O` [Example 15], under setting [1], the PGD2 % is 17%, the PGE2 % worked out at 71% and the PGF2alpha % turned out to be 12%.

Regarding `O=C(O)c1ccc(O)cc1` [Example 16], under setting [1], the PGD2 % was 18%, the PGE2 % amounted to 69% and the PGF2alpha % stood at 13%.

As for `NC(Cc1c[nH]c2ccccc12)C(=O)O` (centres unmarked) [Example 18], the “relative total prostaglandin f” value was found to be 9.8. Under setting [1], this compound had a PGD2 % of 21%, a PGE2 % of 76% and a PGF2alpha % of 3%.

As for `NC(Cc1c[nH]c2ccc(O)cc12)C(=O)O` (centres unmarked) [Example 19], the “relative total prostaglandin f” value amounted to 10.1. For the same compound, under setting [1], the PGD2 % was 18%, the PGE2 % turned out to be 79% and the PGF2alpha % is 3%.

Under setting [1], `O=C(O)CCc1c[nH]c2ccccc12` [Example 20] registered a PGD2 % of 16%, a PGE2 % of 82% and a PGF2alpha % of 2%.

On to `N[C@H](CS)C(=O)O` [Example 34, D-cysteine], for which, under setting [1], the PGD2 % is 23%, the PGE2 % was 63% and the PGF2alpha % was 14%.

Under setting [1], `CC(=O)NC(CS)C(=O)O` (centres unmarked) [Example 37, NAcetylcysteine] came in with a PGD2 % of 25%, a PGE2 % of 61% and a PGF2alpha % of 14%.

Take `O[C@H](CS)[C@H](O)CS` [Example 39, Dithiothreitol, reference compound]: the “stimulation of prostaglandin synthesis” value is listed as “not possible to achieve these advantageous effects” and the “relative total prostaglandin f” value is given as 0.8.

As for `O[C@H](CS)[C@@H](O)CS` [Example 40, Dithioerythritol, reference compound], the “stimulation of prostaglandin synthesis” value is recorded as “not possible to achieve these advantageous effects” and the “relative total prostaglandin f” value is 0.85.

Take `N[C@@H](CSSC[C@H](N)C(=O)O)C(=O)O` [Example 41, Cystine, reference compound]: the “stimulation of prostaglandin synthesis” value is “not possible to achieve these advantageous effects” and the “relative total prostaglandin f” value is given as 1.0. Under setting [1], this compound registered a PGD2 % of 15%, a PGE2 % of 85% and a PGF2alpha % of 0%.

Turning to `NCCS` [Example 43, Cysteamine, reference compound], the “stimulation of prostaglandin synthesis” value was “not possible to achieve these advantageous effects” and the “relative total prostaglandin f” value came out at 0.9.

On to `CC(C)(COP(=O)(O)OP(=O)(O)OC[C@H]1O[C@@H](n2cnc3c(N)ncnc32)[C@H](O)[C@@H]1OP(=O)(O)O)[C@@H](O)C(=O)NCCC(=O)NCCS` [Example 45, Coenzyme A, reference compound], for which the “stimulation of prostaglandin synthesis” value was “not possible to achieve these advantageous effects” and the “relative total prostaglandin f” value is 1.0.

Turning to `CC(C)(CO)[C@@H](O)C(=O)NCCC(=O)NCCS` [Example 46, Pantetheine, reference compound], the “stimulation of prostaglandin synthesis” value is “not possible to achieve these advantageous effects” and the “relative total prostaglandin f” value is listed as 0.95.

Under setting [2], `CC1=C(C)C(=O)C(CC[C@](C)(O)CCC[C@H](C)CCC[C@H](C)CCCC(C)C)=C(C)C1=O` [Example 51, D-alpha-Tocopheryl-quinone] had a PGD2 % of 15%, a PGE2 % of 80% and a PGF2alpha % of 5%.

With `C[C@@H]1O[C@@H](OC[C@H]2O[C@@H](Oc3c(-c4ccc(O)c(O)c4)oc4cc(O)cc(O)c4c3=O)[C@H](O)[C@@H](O)[C@@H]2O)[C@H](O)[C@H](O)[C@H]1O` [Example 52, Rutin], the “relative total prostaglandin f” value was 6. In addition, under setting [2], the PGD2 % is 18%, the PGE2 % stood at 76% and the PGF2alpha % is given as 6%.

As to `O=c1c(O)c(-c2ccc(O)c(O)c2)oc2cc(O)cc(O)c12` [Example 57, Quercetin], the “relative total prostaglandin f” value stood at 0.3. Under setting [2], the PGD2 % was determined as 10%, the PGE2 % was 72% and the PGF2alpha % turned out to be 18%.

Regarding `Oc1cc(O)c2c(c1)OC(c1ccc(O)c(O)c1)C(O)C2` (centres unmarked) [Example 58, Catechin], under setting [2], the PGD2 % is listed as 12%, the PGE2 % amounted to 70% and the PGF2alpha % was found to be 18%.

Under setting [2], `O=C(CCc1ccc(O)cc1)c1c(O)cc(O)cc1O` [Example 60, Phloretin] yielded a PGD2 % of 13%, a PGE2 % of 76% and a PGF2alpha % of 11%.

Under setting [2], `O=c1c(O)c(-c2ccc(O)cc2O)oc2cc(O)cc(O)c12` [Example 61, Morin] gave a PGD2 % of 19%, a PGE2 % of 54% and a PGF2alpha % of 27%.

With `N[C@@H](CS)C(=O)O` [cysteine], the “stimulation of prostaglandin synthesis” value is recorded as “stimulated”.

Turning to `N[C@@H](CCS)C(=O)O` [homocysteine], the “stimulation of prostaglandin synthesis” value is listed as “stimulated”.
